From US20210267205A1, “METHOD OF CONTROLLING WEEDS” (SUMITOMO CHEMICAL COMPANY, LIMITED, priority 2018, published 2021)

How the values were obtained:
Format in all cases: in vivo
Echinochloa crus-galli [1] = experiment: Herbicidal effect, soil spray the day after seeding, pot test (Example 1153); details: 100 L per 10000 m^2, 30 PSI, 10 days in greenhouse, scale of 0 to 100
Procedure: (§1) Echinochloa crus-galli was seeded on a plastic pot filled with a soil. On the next day, an aqueous diluted liquid of trifludimoxazin (prepared by diluting an emuslfiable concentrate of trifludimoxazin with water) was uniformly sprayed onto the pot through the nozzles given in Table 1 at the amount of the aqueous diluted liquid of 100 L per 10000 m^2 so that the application rate of trifludimoxazin might be 20 or 10 g per 10000 m^2. The spray pressure was 30 PSI and the spray height (distance between the nozzle outlet and the soil surface of the pot) was 60 cm. The air temperature was 17 degrees Celsius, the wind speed was 2.5 m/s, and the relative humidity was 65% at the timing of application. The sprayed pots were placed in a greenhouse for 10 days to grow Echinochloa crus-galli and then herbicidal effects were evaluated on scale of 0 to 100.

Echinochloa crus-galli [2] = experiment: Herbicidal effect, soil spray the day after seeding, pot test (Example 1154); details: 150 L per 10000 m^2, 30 PSI, 10 days in greenhouse, scale of 0 to 100
Procedure: as §1, with “in Table 2 at the” for “in Table 1 at the”, “liquid of 150 L per” for “liquid of 100 L per”, “might be 30 or 15” for “might be 20 or 10”, “30 or 15 g per” for “20 or 10 g per”, “evaluated on a scale of” for “evaluated on scale of”

[3] = system: Waterhemp having a Gly210 deletion mutation in PPO2; experiment: Herbicidal effect, soil spray the day after seeding, pot test (Example 1156); details: 15 g per 10000 m^2; 150 L per 10000 m^2; 30 PSI; 10 days in greenhouse; scale of 0 to 100
Procedure: as §1, with “Waterhemp having a Gly210 deletion mutation in PPO2 was seeded” for “Echinochloa crus-galli was seeded”, “in Table 4 at the” for “in Table 1 at the”, “liquid of 150 L per” for “liquid of 100 L per”, “might be 15 g per” for “might be 20 or 10 g per”, “to grow waterhemp and then” for “to grow Echinochloa crus-galli and then”, “evaluated on a scale of” for “evaluated on scale of”

[4] = system: Waterhemp having a Gly210 deletion mutation in PPO2; experiment: Herbicidal effect, soil spray the day after seeding, pot test (Example 1155); details: 10 g per 10000 m^2; 100 L per 10000 m^2; 30 PSI; 10 days in greenhouse; scale of 0 to 100
Procedure: as §1, with “Waterhemp having a Gly210 deletion mutation in PPO2, was seeded” for “Echinochloa crus-galli was seeded”, “in Table 3 at the” for “in Table 1 at the”, “might be 10 g” for “might be 20 or 10 g”, “to grow waterhemp and then” for “to grow Echinochloa crus-galli and then”, “evaluated on a scale of” for “evaluated on scale of”

[5] = system: Amaranthus palmeri, waterhemp and ragweeds having mutations in PPO2; experiment: Effect on weeds, foliar treatment 21 days after sowing (Example 3); details: 10, 20, 40, 80, or 160 g/ha, 200 L/ha, drift-reducing nozzle TTI11004, examined 14 days after treatment
Description: Amaranthus palmeri having an Arg128Gly mutation in PPO2, Amaranthus palmeri having an Arg128Met mutation in PPO2, Amaranthus palmeri having a Gly210 deletion mutation in PPO2, Amaranthus palmeri having a Gly399A1a mutation in PPO2, waterhemp having a Gly210 deletion mutation in PP02, ragweeds having Arg128Leu in PP02, and a Roundup Ready 2 Xtend soybean are sown in a plastic pot. Then, the weeds and soybean are cultivated in a greenhouse and a compound X is applied to perform foliar treatment by using a drift-reducing nozzle (TTI11004 manufactured by Teejet Company) 21 days after sowing. The amount of the compound X to be applied is 10, 20, 40, 80, or 160 g/ha and the amount of spray dilution is 200 L/ha. Then, the weeds and soybean are further cultivated in a greenhouse to examine the effects on the weeds and phytotoxic effects on the soybean 14 days after treatment.

[6] = system: Amaranthus palmeri, waterhemp and ragweeds having mutations in PPO2; experiment: Effect on weeds, soil surface application on day of weed sowing, soybean sown after 7 days (Example 1); details: 10, 20, 40, 80, or 160 g/ha, 200 L/ha, drift-reducing nozzle TTI11004, examined after 14 days
Description: Amaranthus palmeri having an Arg128Gly mutation in PPO2, Amaranthus palmeri having an Arg128Met mutation in PPO2, Amaranthus palmeri having a Gly210 deletion mutation in PPO2, Amaranthus palmeri having a Gly399Ala mutation in PPO2, waterhemp having a Gly210 deletion mutation in PPO2, and ragweeds having Arg128Leu in PPO2 are sown in a plastic pot. On the same day, a compound X is applied to the surface of soil by using a drift-reducing nozzle (TTI11004 manufactured by Teejet Company). The amount of the compound X to be applied is 10, 20, 40, 80, or 160 g/ha and the amount of spray dilution is 200 L/ha. Then, these weeds are cultivated in a greenhouse and Roundup Ready 2 Xtend soybean seeds are sown after 7 days, to examine the effects on the weeds and phytotoxic effects on the soybean after 14 days.

[7] = system: Amaranthus palmeri, waterhemp and ragweeds having mutations in PPO2; experiment: Effect on weeds, soil surface application on day of sowing weeds and soybean (Example 2); details: 10, 20, 40, 80, or 160 g/ha, 200 L/ha, drift-reducing nozzle TTI11004, examined after 21 days
Description: Amaranthus palmeri having an Arg128Gly mutation in PPO2, Amaranthus palmeri having an Arg128Met mutation in PPO2, Amaranthus palmeri having a Gly210 deletion mutation in PPO2, Amaranthus palmeri having a Gly399Ala mutation in PPO2, waterhemp having a Gly210 deletion mutation in PP02, ragweeds having Arg128Leu in PP02, and a Roundup Ready 2 Xtend soybean are sown in a plastic pot. On the same day, a compound X is applied to the surface of soil by using a drift-reducing nozzle (TTI11004 manufactured by Teejet Company). The amount of the compound X to be applied is 10, 20, 40, 80, or 160 g/ha and the amount of spray dilution is 200 L/ha. Then, the weeds and soybean are cultivated in a greenhouse to examine the effects on the weeds and phytotoxic effects on the soybean after 21 days.

Compound: C#CCN1C(=O)C(F)(F)Oc2cc(F)c(-n3c(=O)n(C)c(=S)n(C)c3=O)cc21 [Trifludimoxazin, trifludimoxazin]
- Herbicidal effect on Echinochloa crus-galli, Air induction nozzle (TTI11002) (Echinochloa crus-galli [1]; 10 g per 10000 m^2): 60
- Herbicidal effect on Echinochloa crus-galli, Standard nozzle (Teejet11002) (Echinochloa crus-galli [1]; 10 g per 10000 m^2): 20
- Herbicidal effect on Echinochloa crus-galli, Air induction nozzle (TTI11002) (Echinochloa crus-galli [1]; 20 g per 10000 m^2): 80
- Herbicidal effect on Echinochloa crus-galli, Standard nozzle (Teejet11002) (Echinochloa crus-galli [1]; 20 g per 10000 m^2): 30
- Herbicidal effect on Echinochloa crus-galli, Air induction nozzle (TTI11004) (Echinochloa crus-galli [2]; 15 g per 10000 m^2): 70
- Herbicidal effect on Echinochloa crus-galli, Standard nozzle (Teejet11004) (Echinochloa crus-galli [2]; 15 g per 10000 m^2): 30
- Herbicidal effect on Echinochloa crus-galli, Air induction nozzle (TTI11004) (Echinochloa crus-galli [2]; 30 g per 10000 m^2): 90
- Herbicidal effect on Echinochloa crus-galli, Standard nozzle (Teejet11004) (Echinochloa crus-galli [2]; 30 g per 10000 m^2): 40
- Herbicidal effect on Waterhemp having a Gly210 deletion mutation in PPO2, Air induction nozzle (TTI11004) [3]: 95
- Herbicidal effect on Waterhemp having a Gly210 deletion mutation in PPO2, Standard nozzle (Teejet11004) [3]: 60
- Herbicidal effect on Waterhemp having a Gly210 deletion mutation in PPO2, Air induction nozzle (TTI11002) [4]: 90
- Herbicidal effect on Waterhemp having a Gly210 deletion mutation in PPO2, Pre-orifice nozzle (DG11002) [4]: 90
- Herbicidal effect on Waterhemp having a Gly210 deletion mutation in PPO2, Standard nozzle (Teejet11002) [4]: 50

Compound: CCOC(=O)COc1ncccc1Oc1cc(-n2c(=O)cc(C(F)(F)F)n(C)c2=O)c(F)cc1Cl [compound X, Ethyl [3-[2-chloro-4-fluoro-5-(1-methyl-6-trifluoromethyl-2,4-dioxo-1,2,3,4-tetrahydropyrimidine-3-yl)phenoxy]-2-pyridyloxy]acetate]
- effects on the weeds [5]: valuable effect
- effects on the weeds [6]: valuable effect
- effects on the weeds [7]: valuable effect
